In patent US4539402A, “Quinazolinone derivatives” (Troponwerke GmbH & Co., priority 1982, dated 1985):
Read-outs that look alike come from different tables or passages of the source.

Tests used:
Format in all cases: in vivo
carrageenan oedema = assay: antiphlogistic action, carrageenan oedema (modified method of Winter et al.); conditions: po; peroral; pure λ-carrageenan as 0.25% suspension in physiological saline
Experimental: Exp. Biol. Med. 111, 544 (1962), with the modification that pure λ-carrageenan as a 0.25% strength suspension in physiological saline solution was used for oedema provocation. The following ED50 values, for example, were determined using this procedure: […]

orientation motility = assay: influence on orientation motility in mice (sedative action); conditions: Mus musculus, po, read-out: ED50 (influence on orientation motility, sedative action)
Experimental: Influence on orientation motility in mice was tested to determine the sedative action; an ED50 of 0.5 mg/kg perorally was found for the compound of Example 4.

[1] = Randall-Selitto test (analgesic action); conditions: Rattus norvegicus, po; perorally, rats
[2] = benzoquinone test (analgesic action); conditions: Mus musculus, po; perorally; mice

| Structure (SMILES) | ED50 (carrageenan oedema) | ED50 (orientation motility) | also measured |
| --- | --- | --- | --- |
| O=C1c2ccccc2N(c2cccc([N+](=O)[O-])c2)C2=NCCN12 [Example 4, 10-(3-Nitrophenyl)-2,3-dihydroimidazo-[2,1-b]-quinazolin-5(10H)-one] | 1.3 mg/kg |  | ED50 (orientation motility; perorally, mice): 0.5 mg/kg; ED50 [1]: 3.4 mg/kg; ED50 [2]: 3.1 mg/kg |
| O=C1c2ccccc2N(c2cccc(C(F)(F)F)c2)C2=NCCN12 [Example 5, 10-(3-Trifluoromethylphenyl)-2,3-dihydroimidazo-[2,1-b]-quinazolin-5(10H)-one] | 25.2 mg/kg |  |  |
| Nc1cccc(N2C3=NCCN3C(=O)c3ccccc32)c1 [Example 9, 10-(3-Aminophenyl)-2,3-dihydroimidazo-[2,1-b]-quinoazolin-5(10H)-one] | 3.1 mg/kg |  |  |
| CN(C)CCCN1c2ccccc2Sc2ccc(Cl)cc21 [chlorpromazine] |  | 3.05 mg/kg |  |
| CN1C(=O)CN=C(c2ccccc2)c2cc(Cl)ccc21 [diazepam] |  | 2.8 mg/kg |  |
